Experimental data published in paper PMC13462928 (Nature Communications, 2026).
Entries after “also recorded” stand apart in the source; their conditions may differ.

Key:
[1] = molecular target: T1, NUDT5 (Homo sapiens, UniProt Q96SW2+Q9UKK9); assay: Western blot NUDT5 degradation in HEK293 CRBN KO cells; format: cell-based; set-up: endogenous in cells; host or cells: HEK293 (CRBN KO); conditions: 100 nM, 20 h
Experimental: (§1) Pellets were lysed on ice using RIPA buffer (25 mM Tris (pH 7.5), 150 mM NaCl, 1% Igepal, 1% SDS, 0.1% SDC, 1x protease inhibitor (Roche, cOmplete mini, 11836170001), 1x phosphatase (Thermo Scientific, Halt, 78429), 0.1% benzonase (Merck, E1014-5KU)), incubated for 15 min and then centrifuged for 20 min at 4 °C at maximum speed in a table-top centrifuge. […] Membranes were blocked with 6% milk in PBS-T for 1 h at RT, washed, and then incubated with primary antibody diluted in PBS-T supplemented with 0.1% NaN3 overnight at 4 °C. Membranes were incubated with fluorophore-conjugated secondary antibodies, Alexa Fluor 680 anti-rabbit IgG (Life Technologies, A21109), Alexa Fluor 750 anti-mouse IgG (Life Technologies, A21037) diluted 1:5000 in 2% milk PBS-T, washed and imaged with an Odyssey imager (Licor).

[2] = molecular target: T1, NUDT5; assay: Western blot NUDT5 degradation in HEK293 cells; format: cell-based; conditions: for Dmax: 20 h, read-out: apparent Dmax of NUDT5 degradation
Experimental: as §1

[3] = molecular target: T2, NUDT5 (Homo sapiens, UniProt Q9UKK9); assay: Western blot NUDT5 degradation in HEK293 cells; format: cell-based; conditions: 20 h, Western blot, read-out: DC50 (half-maximal degradation concentration) of NUDT5
Experimental: as §1

[4] = molecular target: NUDT5 and the respective E3 ligase (Homo sapiens, UniProt P40337+Q9UKK9); assay: NanoBRET ternary complex formation assay NUDT5 and the respective E3 ligase (VHL or CRBN) in HEK293 cells; format: cell-based; conditions: Supplementary Table 2; for Ternary complex formation below 1 µM (4 h): HEK293, 4 h; for Ternary complex formation below 1 µM (20 h): HEK293, 20 h
Chain of NUDT5 and the respective E3 ligase (P40337 whole entry, one chain of several): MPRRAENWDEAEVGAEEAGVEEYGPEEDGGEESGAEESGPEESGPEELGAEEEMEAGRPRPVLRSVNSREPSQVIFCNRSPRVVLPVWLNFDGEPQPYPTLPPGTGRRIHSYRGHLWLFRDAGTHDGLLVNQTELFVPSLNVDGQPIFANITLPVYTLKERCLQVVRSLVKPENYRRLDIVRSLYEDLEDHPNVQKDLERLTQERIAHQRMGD
Experimental: (§2) NanoBRET ternary complex assays were performed following the manufacturer’s instructions (Promega). […] After 4 h or 20 h of incubation, a mix of substrate in assay medium was added to each well. Donor and acceptor signals were measured in a PHERAstar FSX or FS plate reader and analyzed by GraphPad Prism (v.9 or v.10). The acceptor/donor ratio was calculated, the no ligand background signal was subtracted, and multiplied by 1000 to yield mBRET units. Data were then normalized to DMSO.

[5] = tested on: HEK293 cells; assay: Untargeted global proteomics of HEK293 cells; format: cell-based, human; conditions: 100 nM, 24 h; for total proteome analysis, downregulated proteins: 7135 quantified proteins
Experimental: (§3) Proteomics samples were digested with trypsin using STrap columns following the manufacturer’s protocol (C02-micro, ProtiFi). […] Then, the cell pellets were collected and lysed in 5% SDS containing 1 μL/mL benzonase (E1014, Millipore) and subsequently short sonication to shear genomic DNA (1×2 s pulse, 20% amplitude, microtip, Sonics Vibra Cell). 50 μg protein from the total cell lysate or 80% of the elution fraction of the chemical pulldown were first reduced by 20 mM dithiothreitol (M02712, Fluorochem), and alkylated by 40 mM iodoacetamide (I1149, Sigma). Phosphoric acid and S-Trap protein binding buffer were added to the sample lysates. Then, the SDS lysate/S-Trap buffer were loaded into a S-Trap column (C02-micro-80, ProtiFi). 1 μg of trypsin (V5111, Promega) was used to digest each sample at 37 °C for 20 h. The samples were then eluted and dried by vacuum centrifugation. Peptide pellets were resuspended in mass spectrometry-grade water with 2% acetonitrile (85188, Thermo Scientific) and 0.1% trifluoroacetic acid (85183, Thermo Scientific). The samples were injected into Orbitrap Fusion Lumos Tribrid Mass Spectrometer (Thermo Scientific). Sample acquisition was performed as previously described.
Raw data were searched against the human database (UP000005640, downloaded 08/21) using DIA-NN (v.1.8.1)[48] by enabling FASTA digest for library-free search and Deep learning-based spectra, RTs, and IMs prediction. Trypsin/P was selected for the in silico digestion of the provided FASTA file, allowing up to 2 missed cleavages. Fixed modifications included N-terminal methionine excision and cysteine carbamidomethylation. Variable modifications were methionine oxidation and N-terminal acetylation, with a maximum of one modification per precursor. Precursor FDR was kept at 1% and MBR enabled. The protein groups matrix was further analysed using Perseus (2.0.9.0)[49] or R studio (4.3.2). Potential contaminants were filtered against the top 300 most common Homo sapiens contaminants reported in CRAPome[50]. Proteins were removed if detected less than 70% across all runs. After column-wise normalisation by median subtraction, missing values were imputed by random numbers from a normal distribution (1.8 standard deviation, downshift width 0.3). Volcano plots were generated by calculating fold change and -log10(p-value) from an unpaired two-sided Student’s t-test.

[6] = tested on: HAP1 cells; assay: Titration of NUDT5 degraders and controls against fixed 6-TG (2 µg/mL) in HAP1 cells, cell viability; format: cell-based, human; conditions: for concentration of maximal rescue of cell viability / rescue of 6-TG-induced toxicity: HAP1, 2 µg/mL 6-TG, 72 h
Experimental: (§4) Cells were counted and adjusted to a density of 25,000 cells/mL in culture medium. […] Plates were sealed with breathable film and incubated at 37 °C with 5% CO₂ for 72 hours. Cell viability was assessed using the CellTiter-Glo Luminescent Cell Viability Assay, following the manufacturer’s protocol (Promega). Luminescence was measured using a PHERAstar FS or FSX plate reader, and data were analyzed using GraphPad Prism software (versions 9 or 10). Results were normalized to the vehicle control (DMSO).

[7] = tested on: HAP1 NUDT5 KO cells; assay: Cell viability (CellTiter-Glo) 6-TG assay in HAP1 NUDT5 KO cells; format: cell-based, human; conditions: Fig. 1A
Experimental: (§5) HEK293, MCF7, A549 were cultured in DMEM + 10% FBS, HAP1 and HL-60 were cultured in IMDM + 10% FBS. All cell lines were maintained at 37 °C and 5% CO2.
as §4

[8] = tested on: HAP1 cell lines; assay: TH1760/6-TG cell viability assay in HAP1 cell lines; format: cell-based, human
Experimental: After 72 h incubation, cell viability was measured using the CellTiter-Glo assay (Promega). Signals were normalized to the control condition.

[9] = tested on: HL-60 cells; assay: Cell viability (CellTiter-Glo) 6-TG assay in HL-60 cells; format: cell-based, human
Experimental: as §5, §4

[10] = tested on: HAP1 cells; assay: Cell viability (CellTiter-Glo) and 6-TG assay in HAP1 WT cells; format: cell-based, human
Experimental: as §5, §4

[11] = molecular target: T2, NUDT5; assay: NanoBRET NUDT5 target engagement (TE) assay in HEK293 cells; format: cell-based; set-up: expressed in transfected cells; host or cells: HEK293; conditions: for EC50: HEK293 cells, Supplementary Fig. 6B, read-out: NUDT5 NanoBRET target engagement EC50
[12] = tested on: HAP1 cells; assay: Metabolomics with isotopically labeled formate/adenosine in HAP1 cells; format: cell-based, human; conditions: HAP1, 100 nM, 13C-D formate 1 mM, 15N adenosine 100 µM, 24 h
Experimental: Experiments were performed in duplicates. Approximately 1.5 × 10^6 HAP1 wt and NUDT5 KO cells were seeded in IMDM (full) prior to treatment with isotopically labeled metabolites. […] After 24 h, plates were washed with PBS and replaced with IMDM containing dialysed FBS (Gibco). Cells were treated with 1 mM of isotopically labeled sodium formate (Eurisotop, CDLM-6203-0.25) or with 1 mM of isotopically labeled sodium and 100 µM isotopically labeled adenosine (Silantes, 125303601). After 24 h, 5 × 10^6 cells for each replicate was harvested, washed with PBS, immediately snap frozen and stored at −80 °C. Cell pellets were lysed with 150 µL ice-cold 80:20 MeOH:H2O, vortexed and sonicated for 5 minutes on ice. The extract was centrifuged for 10 minutes at 10,000 × g at 4 °C and the supernatant was collected in a glass insert vial. This procedure was repeated and the two supernatants were combined. Solvent was evaporated in a vacuum concentrator. Metabolites were reconstituted in 50 µL pure MeOH. A Vanquish UHPLC system (Thermo Scientific) coupled with an Orbitrap Q Exactive (Thermo Scientific) mass spectrometer was used for the LC-MS analysis. […] Quantification of target metabolites was performed by manually integrating the area under the curve, and data were plotted using GraphPad Prism v.10.

[13] = tested on: HAP1 cells; assay: Untargeted global proteomics of HAP1 cells; format: cell-based, human; conditions: 100 nM, 6 h and 24 h
Experimental: as §3, with “Peptide pellets were resuspended in mass spectrometry-grade water with 2% acetonitrile (85188, Thermo Scientific) and 0.1% trifluoroacetic acid (85183, Thermo Scientific). The samples were injected into Orbitrap Fusion Lumos Tribrid Mass Spectrometer (Thermo Scientific). Sample acquisition was performed as previously described.” left out
Raw data were searched against the human database (UP000005640, downloaded 08/21) using DIA-NN (v.1.8.1)[48] by enabling FASTA digest for library-free search and Deep learning-based spectra, RTs, and IMs prediction. […] The protein groups matrix was further analysed using Perseus (2.0.9.0)[49] or R studio (4.3.2). […] Proteins were removed if detected less than 70% across all runs. […]

[14] = molecular target: T3, NUDT5 and CRBN (Homo sapiens, UniProt Q96SW2+Q9UKK9); assay: NanoBRET ternary complex formation assay NanoLuc-NUDT5 / HaloTag-CRBN in HEK293 cells; format: cell-based; conditions: intact HEK293 cells
T3 construct: expressed in transfected cells; host or cells: HEK293
Experimental: as §2

[15] = molecular target: T4, ZFP91 (Homo sapiens, UniProt Q96JP5); assay: Western blot of ZFP91 levels in HEK293 and HAP1 cells; format: cell-based; conditions: 100 nM, 24 h
T4 construct: endogenous in cells; host or cells: HEK293 and HAP1
Experimental: as §1

[16] = molecular target: T1, NUDT5; assay: Western blot NUDT5 degradation in HAP1 cells; format: cell-based; set-up: endogenous in cells; host or cells: HAP1
Experimental: as §1

[17] = molecular target: T2, NUDT5; assay: Western blot NUDT5 degradation in HAP1 cells; format: cell-based; set-up: endogenous in cells; host or cells: HAP1; conditions: HAP1 cells, Western blot; read-out: DC50 (half-maximal degradation concentration) of NUDT5
Experimental: as §1

[18] = molecular target: T1, NUDT5; assay: Western blot NUDT5 degradation in A549 cells; format: cell-based; set-up: endogenous in cells; host or cells: HAP1, A549, MCF7; conditions: A549, MCF7 and HAP1, 100 nM, 20 h
Experimental: as §1

| SMILES | NUDT5 degradation in CRBN knockout cells [1] | Dmax ([2]; Western blot) [%] | DC50 [3] [nM] | Ternary complex formation below 1 µM (4 h) [4] | Ternary complex formation below 1 µM (20 h) [4] | effect on ZFP91 in global proteomics [5] | total proteome analysis, downregulated proteins [5] | concentration of maximal rescue of cell viability [6] [nM] | EC50 [11] [nM] | rescue of 6-TG-induced toxicity [6] | further results |
| --- | --- | --- | --- | --- | --- | --- | --- | --- | --- | --- | --- |
| Cn1c(=O)c2c(nc(N3CCN(C(=O)CCOCCOCCOCCNc4cccc5c4C(=O)N(C4CCC(=O)NC4=O)C5=O)CC3)n2Cc2nnc(-c3ccc(Cl)c(Cl)c3)o2)n(C)c1=O (stereo not drawn) [ASM127] | CRBN knockout (KO) prevents PROTAC-mediated degradation of NUDT5 | 71 | 12 | Yes | Yes | slight effect on the zinc finger protein ZFP91 | NUDT5 as the most significantly downregulated protein | 50 to 100 |  |  |  |
| Cn1c(=O)c2c(nc(N3CCN(C(=O)CCOCCOCCOCCOCCNc4cccc5c4C(=O)N(C4CCC(=O)NC4=O)C5=O)CC3)n2Cc2nnc(-c3ccc(Cl)c(Cl)c3)o2)n(C)c1=O (stereo not drawn) [ASM130] | CRBN knockout (KO) prevents PROTAC-mediated degradation of NUDT5 | 75 | 7 | Yes | Yes | slight effect on the zinc finger protein ZFP91 | NUDT5 as the most significantly downregulated protein | 50 to 100 |  |  |  |
| Nc1nc2nc[nH]c2c(=S)[nH]1 [Compound 6-TG, 6-Thioguanine] |  |  |  |  |  |  |  |  |  |  | increase in 6-TG IC50, NUDT5 KO versus NUDT5 WT [7]: four-fold increase; difference in 6-TG sensitivity, NUDT5 KO versus WT ([8]; HAP1, fixed TH1760 50 µM, 72 h, Fig. 4D): 2.8 fold; IC50 ([8]; Homo sapiens, HAP1 WT cells, approximately): ~1000 nM |
| Cn1c(=O)c2c(nc(N3CCNCC3)n2Cc2nnc(-c3ccc(Cl)c(Cl)c3)o2)n(C)c1=O [TH5427, reference compound] |  |  |  |  |  |  |  |  | 3 | failed to rescue cell viability; also recorded: no signiﬁcant eﬀect | ability to desensitize cells to 6-TG treatment (phenocopy NUDT5 KO) [9]: neither inhibitor was able to phenocopy the NUDT5 KO; ability to desensitize cells to 6-TG treatment (phenocopy NUDT5 KO) [10]: neither inhibitor was able to phenocopy the NUDT5 KO |
| Cn1c(=O)c2c(nc(N3CCN(C(=O)N4CCC(CN5CCN(c6ccc7c(c6)C(=O)N(C6CCC(=O)NC6=O)C7=O)CC5)CC4)CC3)n2Cc2nnc(-c3ccc(Cl)c(Cl)c3)o2)n(C)c1=O (stereo not drawn) [dNUDT5] |  |  | 0.5 |  |  |  |  | 50 to 100 | 37 | most efficient compound in abrogating 6-TG-induced cell death | de novo derived IMP [12]: apparent increase in de novo derived IMP; mechanism of degradation (rescue by neddylation, proteasome, NUDT5 inhibitors and CRBN KO) [2]: UPS-dependent; NUDT5 degradation ([2]; 100 nM, 6 h, Western blot, Supplementary Fig. 6A): induces degradation of NUDT5; global proteome analysis, downregulated proteins [13]: NUDT5 was the only significantly downregulated protein; ternary complex formation between NUDT5 and CRBN in cells [14]: only dNUDT5 induced proficient ternary complex formation; ZFP91 levels [15]: ZFP91 levels remained unchanged; also recorded: does not affect ZFP91 levels; time course of NUDT5 degradation ([16]; 100 nM, up to 72 h): sustained degradation by dNUDT5 over a time course of 72 h; NUDT5 degradation ([16]; HAP1 cells, Western blot, Fig. 3B): induced robust degradation of endogenous NUDT5 protein; DC50 [17]: 0.3 nM; NUDT5 downregulation across a panel of cell lines [18]: robust and consistent NUDT5 downregulation; NUDT5 engagement in live cells ([11]; NanoBRET): engaged their cognate target NUDT5 in live cells; boost of cancer cell viability in presence of 6-TG compared to TH5427 and DMSO control ([6]; peer review file): more than 8 fold |
